Assay results from ChEMBL document CHEMBL5042502, “Discovery of Potent and Selective 2-(Benzylthio)pyrimidine-based DCN1-UBC12 Inhibitors for Anticardiac Fibrotic Effects” (J Med Chem, 2022).
Activity calls are given as the source filed them. The rule behind the calls is not given here.

What was measured:
DCN1-like protein 5 = target: T1, DCN1-like protein 5 (Homo sapiens, UniProt Q9BTE7); assay: Binding affinity to DCN5 (unknown origin) assessed as inhibitory constant
T1 sequence (Q9BTE7 whole entry): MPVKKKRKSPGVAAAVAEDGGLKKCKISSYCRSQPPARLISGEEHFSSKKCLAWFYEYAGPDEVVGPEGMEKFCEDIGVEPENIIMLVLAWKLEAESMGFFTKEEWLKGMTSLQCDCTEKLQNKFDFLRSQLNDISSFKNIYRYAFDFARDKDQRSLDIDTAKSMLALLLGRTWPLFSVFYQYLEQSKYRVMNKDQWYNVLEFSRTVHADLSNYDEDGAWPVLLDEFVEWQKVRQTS

[1] = test system: Fibroblast of cardiac tissue; assay: Antifibrotic effect in SD rat cardiac fibroblast assessed as reduction in Ang II-induced activation of Nrf2 signaling pathway preincubated for 2 hrs followed by Ang II-stimulation and further incubated for 24 hrs by western blot analysis (reference value: 43 %); format: functional; conditions: time 26 hrs
Cardiac fibroblast [2] = assay: Inhibition of DCN1 in Ang II-treated Sprague-Dawley rat cardiac fibroblast assessed as decrease in cell migration preincubated for 2 hrs followed by Ang-II stimulation and further incubated for 24 hrs by scratch wound healing assay based microscopy; conditions: Sprague-Dawle, time 26.0 hrs
DCN1-like protein 3 = target: T2, DCN1-like protein 3 (Homo sapiens, UniProt Q8IWE4); assay: Binding affinity to DCN3 (unknown origin) assessed as inhibitory constant
T2 sequence (Q8IWE4 whole entry): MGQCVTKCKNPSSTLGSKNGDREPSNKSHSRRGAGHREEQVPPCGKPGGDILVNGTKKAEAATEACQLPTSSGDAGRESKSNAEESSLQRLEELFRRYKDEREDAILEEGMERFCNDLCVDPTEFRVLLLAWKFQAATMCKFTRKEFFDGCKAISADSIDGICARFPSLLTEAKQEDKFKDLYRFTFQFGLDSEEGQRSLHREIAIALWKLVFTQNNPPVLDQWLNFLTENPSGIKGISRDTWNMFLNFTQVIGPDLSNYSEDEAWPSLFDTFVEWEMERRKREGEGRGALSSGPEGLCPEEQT

[3] = test system: Fibroblast of cardiac tissue; assay: Reversal of Ang II-induced increase in cullin 3 secretion in mouse cardiac fibroblast at 1 uM preincubated for 2 hrs followed by Ang-II stimulation and further incubated for 24 hrs by western blot analysis; format: functional, cell-based; conditions: time 26.0 hrs
[4] = test system: Fibroblast of cardiac tissue; assay: Reversal of Ang II-induced increase in DCN1 secretion in mouse cardiac fibroblast at 1 uM preincubated for 2 hrs followed by Ang-II stimulation and further incubated for 24 hrs by western blot analysis; format: functional, cell-based; conditions: time 26.0 hrs
[5] = test system: Fibroblast of cardiac tissue; assay: Effect on Ang II-induced in Cul1 neddylation in mouse cardiac fibroblast at 1 uM preincubated for 2 hrs followed by Ang-II stimulation and further incubated for 24 hrs by western blot analysis; format: functional, cell-based; conditions: time 26.0 hrs
DCN1-like protein 1 [6] = target: T3, DCN1-like protein 1 (Homo sapiens, UniProt Q96GG9)
Target sequence in this assay (Q96GG9 whole entry, looked up): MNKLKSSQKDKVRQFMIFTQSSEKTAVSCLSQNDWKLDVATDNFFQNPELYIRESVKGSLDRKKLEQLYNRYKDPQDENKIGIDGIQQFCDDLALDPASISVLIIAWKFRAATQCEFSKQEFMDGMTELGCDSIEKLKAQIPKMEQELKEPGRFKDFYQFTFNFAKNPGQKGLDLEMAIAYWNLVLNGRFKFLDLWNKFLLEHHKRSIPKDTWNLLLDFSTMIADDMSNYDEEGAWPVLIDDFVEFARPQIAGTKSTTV
Description: Binding affinity to DCN1 (unknown origin) assessed as Gibbs free energy change by MM-PBSA method

[7] = test system: Fibroblast of cardiac tissue; assay: Effect on Cul5 neddylation in mouse cardiac fibroblast at 1 uM preincubated for 2 hrs by Western blot analysis; format: functional, cell-based
[8] = test system: Fibroblast of cardiac tissue; assay: Effect on Ang II-induced in Cul2 neddylation in mouse cardiac fibroblast at 1 uM preincubated for 2 hrs followed by Ang-II stimulation and further incubated for 24 hrs by western blot analysis; format: functional, cell-based; conditions: time 26.0 hrs
DCN1-like protein 1 [9] = target: T3, DCN1-like protein 1; assay: Inhibition of GST-tagged DCN1 (unknown origin) using AcUBE2M1-21 incubated for 30 mins by HTRF assay
Target sequence in this assay (Q96GG9 whole entry): as the sequence (Q96GG9 whole entry, looked up) above

[10] = test system: Fibroblast of cardiac tissue; assay: Effect on Cul1 neddylation in mouse cardiac fibroblast at 1 uM preincubated for 2 hrs by Western blot analysis; format: functional, cell-based
[11] = test system: Fibroblast of cardiac tissue; assay: Antifibrotic effect in SD rat cardiac fibroblast transfected with DCN1 siRNA assessed as effect on collagen I expression at 1 uM preincubated for 2 hrs followed by Ang II-stimulation and further incubated for 24 hrs by western blot analysis; format: functional, cell-based; conditions: time 26.0 hrs
[12] = test system: Fibroblast of cardiac tissue; assay: Antifibrotic effect in SD rat cardiac fibroblast assessed as reduction in Ang II-induced collagen I upregulation preincubated for 2 hrs followed by Ang II-stimulation and further incubated for 24 hrs by western blot analysis (reference value: 71 %); format: functional; conditions: time 26 hrs
[13] = test system: Fibroblast of cardiac tissue; assay: Effect on Cul2 neddylation in mouse cardiac fibroblast at 1 uM preincubated for 2 hrs by Western blot analysis; format: functional, cell-based
[14] = Cytotoxicity against Sprague-Dawley rat cardiac fibroblast by MTT assay; format: toxicity, cell-based, Fibroblast of cardiac tissue; conditions: cardiac fibroblasts
Cardiac fibroblast [15] = assay: Inhibition of intracellular DCN1 in Sprague-Dawley rat cardiac fibroblast measured between 42 to 62 degC at 10 uM incubated for 5 hrs by cellular thermal shift assay; format: cell-based
[16] = test system: Fibroblast of cardiac tissue; assay: Reversal of TGF-beta-induced increase in collagen I secretion in mouse cardiac fibroblast at 1 uM preincubated for 2 hrs followed by TGF-beta stimulation and further incubated for 24 hrs by Western blot analysis; format: functional, cell-based; conditions: time 26.0 hrs

Structure (SMILES): COc1cc(-c2nc(SCc3ccc(Cl)cc3)nc(Sc3nnnn3C)c2C#N)cc(OC)c1OC
- Ki (DCN1-like protein 5): 28.9 µM
- inhibition (INH) [1]: 37%
- inhibition (Cardiac fibroblast [2]): Active
- Ki (DCN1-like protein 3): 385 µM
- Activity [3]: Active
- Activity [4]: Active
- Activity [5]: Active
- deltaG (DCN1-like protein 1 [6]): -8.75 kcal/mol
- Activity [7]: Active
- Activity [8]: Active
- IC50 (DCN1-like protein 1 [9]): 0.00955 µM
- Activity [10]: Active
- inhibition [11]: inactive
- inhibition (INH) [12]: 33%
- Activity [13]: Active
- IC50 [14]: 27.3 µM
- inhibition (Cardiac fibroblast [15]): Active
- Activity [16]: Active
